Measurements reported in patent publication US12668594B2, “TYK2 inhibitors and uses thereof” (Sudo Biosciences Limited, priority 2020, dated 2026).

Key:
[1] = target: T1, TYK2 (Homo sapiens, UniProt P29597); assay: HEK-Blue IFNα/β reporter assay (SEAP) for TYK2 pseudokinase inhibition; format: cell-based; conditions: HEK-Blue IFNα/β cells, 1 ng/mL human recombinant IFNα
Description: (§1) HEK-Blue™ IL-23 and IFNα/β cells with a stably-integrated cytokine receptor and STAT3 or STAT1 express STAT-inducible secreted embryonic alkaline phosphatase (SEAP) reporter gene upon cytokine stimulation. These cells are plated in DMVEM (Gibco) containing 10% heat-inactivated FBS (Gibco) and 100 U/mL PenStrep (Gibco) at 37° C. under […] conditions for 20-22 hours. The cells are then pretreated with serially diluted test compounds for 60 min prior to stimulation with either 10 ng/mL human recombinant IL-23 (Miltenyl Biotech) or 1 ng/mL human recombinant IFNα (InvivoGen) for 22-24 hours for IL-23 or 16-18 h for IFNα. SEAP induction is measured using the QUANTI Blue™ Solution (InvivoGen) according to the manufacturer's instructions. Inhibition data are calculated by comparison to no inhibitor control wells for 000 inhibition and non-stimulated control wells for 10000 inhibition. Dose response curves are generated to determine the concentration required to inhibit 5000 of cellular response (IC50) as derived by non-linear regression analysis.

[2] = target: T1, TYK2; assay: HEK-Blue IL-23 reporter assay (SEAP) for TYK2 pseudokinase inhibition; format: cell-based; parameters: HEK-Blue™ IL-23 and IFNα/β cells with a stably-integrated cytokine receptor and STAT3 or STAT1; host or cells: HEK-Blue IL-23 / HEK-Blue IFNα/β cells (HEK293 background); conditions: HEK-Blue IL-23 cells, 10 ng/mL human recombinant IL-23, SEAP reporter; read-out: IL23 IC50
Description: as §1

T1 sequence (P29597 whole entry): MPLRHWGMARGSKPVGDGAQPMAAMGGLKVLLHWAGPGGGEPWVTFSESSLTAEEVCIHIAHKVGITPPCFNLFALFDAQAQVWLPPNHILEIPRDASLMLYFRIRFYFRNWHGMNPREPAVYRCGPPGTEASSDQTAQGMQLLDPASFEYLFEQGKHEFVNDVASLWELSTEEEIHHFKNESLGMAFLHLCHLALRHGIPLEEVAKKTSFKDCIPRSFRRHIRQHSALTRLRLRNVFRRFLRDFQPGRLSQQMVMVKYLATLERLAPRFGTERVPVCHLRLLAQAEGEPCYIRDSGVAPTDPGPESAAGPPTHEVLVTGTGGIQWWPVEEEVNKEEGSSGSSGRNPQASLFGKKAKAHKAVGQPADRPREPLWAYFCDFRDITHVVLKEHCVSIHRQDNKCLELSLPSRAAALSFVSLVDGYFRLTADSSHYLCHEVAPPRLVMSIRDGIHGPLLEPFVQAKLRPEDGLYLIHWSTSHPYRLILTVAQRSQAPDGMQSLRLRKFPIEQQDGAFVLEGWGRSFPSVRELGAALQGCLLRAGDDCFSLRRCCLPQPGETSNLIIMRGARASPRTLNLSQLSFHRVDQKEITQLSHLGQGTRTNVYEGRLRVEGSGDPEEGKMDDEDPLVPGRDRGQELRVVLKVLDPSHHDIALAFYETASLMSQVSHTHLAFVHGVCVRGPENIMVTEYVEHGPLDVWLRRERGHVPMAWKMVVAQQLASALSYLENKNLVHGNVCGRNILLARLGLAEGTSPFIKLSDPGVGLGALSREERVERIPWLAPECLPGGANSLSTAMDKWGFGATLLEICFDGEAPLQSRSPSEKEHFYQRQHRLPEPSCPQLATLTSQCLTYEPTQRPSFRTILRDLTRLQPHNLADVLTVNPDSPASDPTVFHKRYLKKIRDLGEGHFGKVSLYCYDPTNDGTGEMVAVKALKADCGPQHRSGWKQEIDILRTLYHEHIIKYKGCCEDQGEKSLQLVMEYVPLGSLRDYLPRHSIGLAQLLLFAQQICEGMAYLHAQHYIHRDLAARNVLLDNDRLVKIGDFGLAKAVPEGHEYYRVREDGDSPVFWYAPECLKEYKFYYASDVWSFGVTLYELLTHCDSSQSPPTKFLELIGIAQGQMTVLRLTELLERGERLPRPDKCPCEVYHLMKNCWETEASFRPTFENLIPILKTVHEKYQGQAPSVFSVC

IC50 [1] [µM] | IC50 [2] [µM] | Structure (SMILES)
10 to 30 | < 10 | Cc1cc(Nc2cc3c(cn2)c(=O)[nH]n3-c2cccnc2)nc(C)n1 [Compound I-30, 6-((2,6-dimethylpyrimidin-4-yl)amino)-1-(pyridin-3-yl)-1,2-dihydro-3H-pyrazolo[4,3-c]pyridin-3-one]
< 10 | < 10 | Cc1cc(Nc2cc3c(cn2)c(=O)[nH]n3-c2cccc(Cl)c2)nc(C)n1 [Compound I-31, 1-(3-chlorophenyl)-6-((2,6-dimethylpyrimidin-4-yl)amino)-1,2-dihydro-3H-pyrazolo[4,3-c]pyridin-3-one]
> 90 | 10 to 30 | Cc1cc(Nc2cc3c(cn2)c(=O)[nH]n3-c2ccc(S(C)(=O)=O)cc2)nc(C)n1 [Compound I-32, 6-((2,6-dimethylpyrimidin-4-yl)amino)-1-(4-(methylsulfonyl)phenyl)-1,2-dihydro-3H-pyrazolo[4,3-c]pyridin-3-one]
< 10 | < 10 | COc1cccc(-n2[nH]c(=O)c3cnc(Nc4cc(C)nc(C)n4)cc32)n1 [Compound I-33, 6-((2,6-dimethylpyrimidin-4-yl)amino)-1-(6-methoxypyridin-2-yl)-1,2-dihydro-3H1-pyrazolo[4,3-c]pyridin-3-one]
> 90 | > 90 | CC(C)(C)OC(=O)Nc1cc2c(cn1)c(=O)[nH]n2-c1ccccc1 [Compound I-35, tert-butyl N-{3-oxo-1-phenyl-1H,2H,3H-pyrazolo[4,3-c]pyridin-6-yl}carbamate]
< 10 | < 10 | COc1cccc(-n2[nH]c(=O)c3cnc(Nc4ccc(F)cn4)cc32)n1 [Compound I-36, 6-((5-fluoropyridin-2-yl)amino)-1-(6-methoxypyridin-2-yl)-1,2-dihydro-3H-pyrazolo[4,3-c]pyridin-3-one]
10 to 30 | < 10 | COc1cccc(-n2[nH]c(=O)c3cnc(Nc4ccc(F)cn4)cc32)c1F [Compound I-38, 1-(2-fluoro-3-methoxyphenyl)-6-((5-fluoropyridin-2-yl)amino)-1,2-dihydro-3H-pyrazolo[4,3-c]pyridin-3-one]
< 10 | < 10 | COc1cccc(-n2[nH]c(=O)c3cnc(Nc4ccc(F)cn4)cc32)c1 [Compound I-39, 6-((5-fluoropyridin-2-yl)amino)-1-(3-methoxyphenyl)-1,2-dihydro-3H-pyrazolo[4,3-c]pyridin-3-one]
< 10 | < 10 | COc1cccc(-n2[nH]c(=O)c3cnc(Nc4ccc(C#N)cn4)cc32)c1 [Compound I-40, 6-((1-(3-methoxyphenyl)-3-oxo-2,3-dihydro-1H-pyrazolo[4,3-c]pyridin-6-yl)amino)nicotinonitrile]
< 10 | < 10 | COc1ccc(Nc2cc3c(cn2)c(=O)[nH]n3-c2cccc(OC)c2)nc1 [Compound I-41, 1-(3-methoxyphenyl)-6-((5-methoxypyridin-2-yl)amino)-1,2-dihydro-3H-pyrazolo[4,3-c]pyridin-3-one]
< 10 | < 10 | COc1cccc(-n2[nH]c(=O)c3cnc(Nc4ccc(C(F)(F)F)cn4)cc32)c1 [Compound I-42, 1-(3-methoxyphenyl)-6-((5-(trifluoromethyl)pyridin-2-yl)amino)-1,2-dihydro-3H-pyrazolo[4,3-c]pyridin-3-one]
< 10 | < 10 | COc1cccc(-n2[nH]c(=O)c3cnc(Nc4cc(C#N)ccn4)cc32)c1 [Compound I-44, 2-((1-(3-methoxyphenyl)-3-oxo-2,3-dihydro-1H-pyrazolo[4,3-c]pyridin-6-yl)amino)isonicotinonitrile]
> 90 | 10 to 30 | COc1cccc(-n2[nH]c(=O)c3cnc(Nc4cc(OC)ccn4)cc32)c1 [Compound I-45, 1-(3-methoxyphenyl)-6-((4-methoxypyridin-2-yl)amino)-1,2-dihydro-3H-pyrazolo[4,3-c]pyridin-3-one]
> 90 | < 10 | COc1cccc(-n2[nH]c(=O)c3cnc(Nc4cc(OC)ncn4)cc32)c1 [Compound I-46, 1-(3-methoxyphenyl)-6-((6-methoxypyrimidin-4-yl)amino)-1,2-dihydro-3H-pyrazolo[4,3-c]pyridin-3-one]
< 10 | > 90 | COc1cccc(-n2[nH]c(=O)c3cnc(Nc4cc(C)ncn4)cc32)c1 [Compound I-47, 1-(3-methoxyphenyl)-6-((6-methylpyrimidin-4-yl)amino)-1,2-dihydro-3H-pyrazolo[4,3-c]pyridin-3-one]
> 90 | > 90 | COc1cccc(-n2[nH]c(=O)c3cnc(Nc4ccnc(OC)n4)cc32)c1 [Compound I-48, 1-(3-methoxyphenyl)-6-((2-methoxypyrimidin-4-yl)amino)-1,2-dihydro-3H-pyrazolo[4,3-c]pyridin-3-one]
< 10 | < 10 | COc1cccc(-n2[nH]c(=O)c3cnc(Nc4ccccn4)cc32)c1 [Compound I-50, 1-(3-methoxyphenyl)-6-(pyridin-2-ylamino)-1,2-dihydro-3H-pyrazolo[4,3-c]pyridin-3-one]
< 10 | < 10 | COc1cccc(-n2[nH]c(=O)c3cnc(Nc4ccncn4)cc32)c1 [Compound I-51, 1-(3-methoxyphenyl)-6-(pyrimidin-4-ylamino)-1,2-dihydro-3H-pyrazolo[4,3-c]pyridin-3-one]
< 10 | < 10 | COc1cccc(-n2[nH]c(=O)c3cnc(Nc4cccnn4)cc32)c1 [Compound I-52, 1-(3-methoxyphenyl)-6-(pyridazin-3-ylamino)-1,2-dihydro-3H-pyrazolo[4,3-c]pyridin-3-one]
< 10 | < 10 | COc1cccc(-n2[nH]c(=O)c3cnc(Nc4cnccn4)cc32)c1 [Compound I-53, 1-(3-methoxyphenyl)-6-(pyrazin-2-ylamino)-1,2-dihydro-3H-pyrazolo[4,3-c]pyridin-3-one]
< 10 | < 10 | COc1cccc(-n2[nH]c(=O)c3cnc(NC(=O)C4CC4)cc32)c1 [Compound I-54, N-(1-(3-methoxyphenyl)-3-oxo-2,3-dihydro-1H-pyrazolo[4,3-c]pyridin-6-yl)cyclopropanecarboxamide]
< 10 | < 10 | O=C(Nc1cc2c(cn1)c(=O)[nH]n2-c1cccc(OC(F)(F)F)c1)C1CC1 [Compound I-55, N-(3-oxo-1-(3-(trifluoromethoxy)phenyl)-2,3-dihydro-1H-pyrazolo[4,3-c]pyridin-6-yl)cyclopropanecarboxamide]
10 to 30 | < 10 | O=c1[nH]n(-c2cccc(OC(F)(F)F)c2)c2cc(Nc3ccc(F)cn3)ncc12 [Compound I-56, 6-((5-fluoropyridin-2-yl)amino)-1-(3-(trifluoromethoxy)phenyl)-1,2-dihydro-3H-pyrazolo[4,3-c]pyridin-3-one]
< 10 | < 10 | Cc1cc(Nc2cc3c(cn2)c(=O)[nH]n3-c2cccc(C(F)(F)F)c2)nc(C)n1 [Compound I-57, 6-((2,6-dimethylpyrimidin-4-yl)amino)-1-(3-(trifluoromethyl)phenyl)-1,2-dihydro-3H-pyrazolo[4,3-c]pyridin-3-one]
< 10 | < 10 | O=C(Nc1cc2c(cn1)c(=O)[nH]n2-c1cccc(C(F)(F)F)c1)C1CC1 [Compound I-58, N-(3-oxo-1-(3-(trifluoromethyl)phenyl)-2,3-dihydro-1H-pyrazolo[4,3-c]pyridin-6-yl)cyclopropanecarboxamide]
